# Earlier results as cited in US20180263953A1, “Sustained Release Cannabinoid Formulations” (CannTab Therapeutics, Limited, priority 2016, published 2018).
# What was measured:
# [1] = after administration
# [2] = low solubility and unknown permeability; NICHD/FDA Oral Formulations Platform Report 1
smiles,measurement,setting,value
"CCCCCc1cc(O)c2c(c1)OC(C)(C)[C@@H]1CCC(C)=C[C@@H]21 [Dronabinol, (−)-trans-Δ^9-tetrahydrocannabinol]",duration of appetite stimulant effect,[1],≥ 24 h
same,BCS class,[2],class 2 or class 4
